From patent US20260297042A1, “BIARYLAMIDE DERIVATIVES AND THEIR USE AS PKMYT1 INHIBITORS” (CANCER RESEARCH TECHNOLOGY LIMITED, priority 2023, published 2026)

Assays:
[1] = molecular target: T1, Human PKMYT1 (Homo sapiens, UniProt Q99640); assay: PKMYT1 biochemical ADP-Glo enzymatic assay; conditions: ADP-Glo; 15 nM PKMYT1 kinase domain, 500 µM ATP, 60 minutes at 26° C.; banded
T1 construct: Human PKMYT1 75-362 was cloned as a TEV cleavable 6xHis fusion; 6xHis (TEV cleavable) (cleaved yes); made in house; host or cells: bacterial cells
T1 sequence (Q99640 75-362): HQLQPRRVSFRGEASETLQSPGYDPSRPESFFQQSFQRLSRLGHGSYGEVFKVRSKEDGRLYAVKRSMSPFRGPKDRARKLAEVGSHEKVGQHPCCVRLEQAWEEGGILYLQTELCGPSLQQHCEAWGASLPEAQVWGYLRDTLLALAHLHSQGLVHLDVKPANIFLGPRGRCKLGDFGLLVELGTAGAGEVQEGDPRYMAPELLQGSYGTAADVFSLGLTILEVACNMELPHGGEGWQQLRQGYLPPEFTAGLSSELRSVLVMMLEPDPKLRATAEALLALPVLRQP
Outline: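 Measures inhibition of PKMYT1 autonomous ATP hydrolysis: bacterially expressed human enzyme (75-362, tag cleaved) at 15 nM with 500 µM ATP for 60 min at 26 °C, then ADP-Glo Max detection. IC50s accepted only when replicates agreed within 3-fold and curve r2 exceeded 0.9.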

[2] = molecular target: T2, WEE1 (Homo sapiens, UniProt P30291); assay: Selectivity versus WEE1 assay (ADP-Glo enzymatic assay); type: biochemical; conditions: banded; for IC50: ADP-Glo, 15 nM WEE1, 60 minutes at 26° C.; for PKMYT1 vs. WEE1 selectivity: fold difference in selectivity for PKMYT1 over WEE1, ">N" = at least in this band but could be higher
T2 construct: purchased Thermo Fisher PR7373A
T2 sequence (P30291 whole entry): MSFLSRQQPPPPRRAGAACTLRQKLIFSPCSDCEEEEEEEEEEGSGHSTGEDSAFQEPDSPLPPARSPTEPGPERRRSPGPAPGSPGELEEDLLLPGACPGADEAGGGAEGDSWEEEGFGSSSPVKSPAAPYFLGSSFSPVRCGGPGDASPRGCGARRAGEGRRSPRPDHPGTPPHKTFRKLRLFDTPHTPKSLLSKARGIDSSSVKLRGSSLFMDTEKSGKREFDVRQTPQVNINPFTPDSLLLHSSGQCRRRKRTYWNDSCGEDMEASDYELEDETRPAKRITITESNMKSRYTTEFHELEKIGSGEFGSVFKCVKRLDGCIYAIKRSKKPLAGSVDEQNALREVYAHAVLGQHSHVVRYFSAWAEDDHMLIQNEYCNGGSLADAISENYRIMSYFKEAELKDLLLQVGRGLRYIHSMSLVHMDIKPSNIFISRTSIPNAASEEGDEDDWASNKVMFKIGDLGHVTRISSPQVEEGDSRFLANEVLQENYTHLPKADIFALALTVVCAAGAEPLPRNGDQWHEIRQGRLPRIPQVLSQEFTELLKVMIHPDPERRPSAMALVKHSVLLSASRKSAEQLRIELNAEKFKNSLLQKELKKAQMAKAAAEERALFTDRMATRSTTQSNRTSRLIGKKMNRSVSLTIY
Outline: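 Same format as the PKMYT1 assay: WEE1 at 15 nM final with 30 µM ATP, 60 min at 26° C, ADP-Glo luminescence detection, IC50 by dose-response fitting.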

| SMILES | IC50 [1] | IC50 [2] | PKMYT1 vs. WEE1 selectivity [2] |
| --- | --- | --- | --- |
| COc1ccc2cc(Nc3ncc(C(=O)Nc4c(C)ccc(O)c4C)s3)nn2c1 [BAA-242, N-(3-Hydroxy-2,6-dimethylphenyl)-2-((6-methoxypyrazolo[1,5-a]pyridin-2-yl)amino)thiazole-5-carboxamide] | 0.05 to 1 µM | > 11 µM | Y (1000-5000 fold) |
| Cc1ccc(O)c(C)c1NC(=O)c1cnc(Nc2nn(C)c3c2CCCC3)s1 [BAA-246, N-(3-hydroxy-2,6-dimethylphenyl)-2-((1-methyl-4,5,6,7-tetrahydro-1H-indazol-3-yl)amino)thiazole-5-carboxamide] | 1 to 11 µM | > 11 µM | W (10-<100 fold) |
| Cc1ccc(O)c(C)c1NC(=O)c1cnc(Nc2nn(C)c3c2CCC3)s1 [BAA-247, N-(3-hydroxy-2,6-dimethylphenyl)-2-((1-methyl-1,4,5,6-tetrahydrocyclopenta[c]pyrazol-3-yl)amino)thiazole-5-carboxamide] | 0.05 to 1 µM | > 11 µM | Y (1000-5000 fold) |
| Cn1ccc(Nc2ncc(C(=O)Nc3c(F)ccc(O)c3F)s2)n1 [BAA-249, N-(2,6-difluoro-3-hydroxyphenyl)-2-((1-methyl-1H-pyrazol-3-yl)amino)thiazole-5-carboxamide] | 0.05 to 1 µM | > 11 µM | X (100-<1000 fold) |
| COCc1cc(Nc2ncc(C(=O)Nc3c(C)ccc(O)c3C)s2)nn1C [BAA-252, N-(3-hydroxy-2,6-dimethylphenyl)-2-((5-(methoxymethyl)-1-methyl-1H-pyrazol-3-yl)amino)thiazole-5-carboxamide] | 0.05 to 1 µM | 1 to 11 µM | X (100-<1000 fold) |
| Cc1ccc(O)c(C)c1NC(=O)c1cnc(Nc2cc(C(=O)OC(C)(C)C)n(C)n2)s1 [BAA-253, tert-butyl 3-((5-((3-hydroxy-2,6-dimethylphenyl)carbamoyl)thiazol-2-yl)amino)-1-methyl-1H-pyrazole-5-carboxylate] | 0.05 to 1 µM | > 11 µM | X (100-<1000 fold) |
| Cc1ccc(O)c(C)c1NC(=O)c1cnc(Nc2nn(C)cc2C(N)=O)s1 [BAA-254, 2-((4-carbamoyl-1-methyl-1H-pyrazol-3-yl)amino)-N-(3-hydroxy-2,6-dimethylphenyl)thiazole-5-carboxamide] | 0.05 to 1 µM | > 11 µM | Y (1000-5000 fold) |
| COCCn1nc(Nc2ncc(C(=O)Nc3c(C)ccc(O)c3C)s2)cc1C [BAA-255, N-(3-hydroxy-2,6-dimethylphenyl)-2-((1-(2-methoxyethyl)-5-methyl-1H-pyrazol-3-yl)amino)thiazole-5-carboxamide] | 0.05 to 1 µM | > 11 µM | X (100-<1000 fold) |
| Cc1nnc(Nc2ncc(C(=O)Nc3c(C)ccc(O)c3C)s2)o1 [BAA-258, N-(3-hydroxy-2,6-dimethylphenyl)-2-((5-methyl-1,3,4-oxadiazol-2-yl)amino)thiazole-5-carboxamide] | 1 to 11 µM | > 11 µM | W (10-<100 fold) |
| Cc1ccc(O)c(C)c1NC(=O)c1cnc(Nc2cccc(C(=O)NC(C(C)C)C(F)(F)F)c2)s1 (stereo not drawn) [BAA-259, N-(3-hydroxy-2,6-dimethylphenyl)-2-((3-((1,1,1-trifluoro-3-methylbutan-2-yl)carbamoyl)phenyl)amino)thiazole-5-carboxamide] | 0.05 to 1 µM | > 11 µM | X (100-<1000 fold) |
| Cc1ccc(O)c(C)c1NC(=O)c1cnc(Nc2ccnn2CCN)s1 [BAA-260, 2-((1-(2-aminoethyl)-1H-pyrazol-5-yl)amino)-N-(3-hydroxy-2,6-dimethylphenyl)thiazole-5-carboxamide] | 0.05 to 1 µM | > 11 µM | W (10-<100 fold) |
| Cc1ccc(O)c(C)c1NC(=O)c1cnc(Nc2cccc(C(=O)N3CC(F)(F)C(F)(F)C3)c2)s1 [BAA-261, N-(3-hydroxy-2,6-dimethylphenyl)-2-((3-(3,3,4,4-tetrafluoropyrrolidine-1-carbonyl)phenyl)amino)thiazole-5-carboxamide] | 0.05 to 1 µM | > 11 µM | X (100-<1000 fold) |

Further lines, results first:

| IC50 [1] | IC50 [2] | PKMYT1 vs. WEE1 selectivity [2] | SMILES |
| --- | --- | --- | --- |
| 0.05 to 1 µM | > 11 µM | X (100-<1000 fold) | Cc1cc(Nc2ncc(C(=O)Nc3c(C)ccc(O)c3C)s2)n(CCC(N)=O)n1 [BAA-240, 2-((1-(3-amino-3-oxopropyl)-3-methyl-1H-pyrazol-5-yl)amino)-N-(3-hydroxy-2,6-dimethylphenyl) thiazole-5-carboxamide] |
| 0.05 to 1 µM | > 11 µM | X (100-<1000 fold) | Cc1ccc(O)c(C)c1NC(=O)c1cnc(Nc2cc(C)n(CCC(=O)O)n2)s1 [BAA-241, 3-(3-((5-((3-hydroxy-2,6-dimethylphenyl)carbamoyl)thiazol-2-yl)amino)-5-methyl-1H-pyrazol-1-yl)propanoic acid] |
| < 0.05 µM | 1 to 11 µM | X (100-<1000 fold) | Cc1ccc(O)c(C)c1NC(=O)c1cnc(Nc2c3ccncc3nn2C)s1 [BAA-244, N-(3-hydroxy-2,6-dimethylphenyl)-2-((2-methyl-2H-pyrazolo[3,4-c]pyridin-3-yl)amino)thiazole-5-carboxamide] |
| < 0.05 µM | > 11 µM | Y (1000-5000 fold) | Cc1ccc(O)c(C)c1NC(=O)c1cnc(Nc2cc(C3CC3)n(C)n2)s1 [BAA-245, 2-((5-cyclopropyl-1-methyl-1H-pyrazol-3-yl)amino)-N-(3-hydroxy-2,6-dimethylphenyl)thiazole-5-carboxamide] |
| < 0.05 µM | 1 to 11 µM | X (100-<1000 fold) | Cc1ccc(O)c(C)c1NC(=O)c1cnc(Nc2c3cnccc3nn2C)s1 [BAA-248, N-(3-hydroxy-2,6-dimethylphenyl)-2-((2-methyl-2H-pyrazolo[4,3-c]pyridin-3-yl)amino)thiazole-5-carboxamide] |
| < 0.05 µM | > 11 µM | X (100-<1000 fold) | Cc1ccc(O)c(C)c1NC(=O)c1cnc(Nc2cc3n(n2)CCN(C)C3=O)s1 [BAA-250, N-(3-hydroxy-2,6-dimethylphenyl)-2-((5-methyl-4-oxo-4,5,6,7-tetrahydropyrazolo[1,5-a]pyrazin-2-yl)amino)thiazole-5-carboxamide] |
| < 0.05 µM | 1 to 11 µM | X (100-<1000 fold) | Cc1ccc(O)c(C)c1NC(=O)c1cnc(Nc2cc(CO)n(C)n2)s1 [BAA-251, N-(3-hydroxy-2,6-dimethylphenyl)-2-((5-(hydroxymethyl)-1-methyl-1H-pyrazol-3-yl)amino)thiazole-5-carboxamide] |
| < 0.05 µM | 1 to 11 µM | W (10-<100 fold) | Cc1ccc(O)c(C)c1NC(=O)c1cnc(Nc2cc(C(C)(C)O)n(C)n2)s1 [BAA-256, N-(3-hydroxy-2,6-dimethylphenyl)-2-((5-(2-hydroxypropan-2-yl)-1-methyl-1H-pyrazol-3-yl)amino)thiazole-5-carboxamide] |
| < 0.05 µM | > 11 µM | Y (1000-5000 fold) | Cc1ccc(O)c(C)c1NC(=O)c1cnc(Nc2nccs2)s1 [BAA-257, N-(3-hydroxy-2,6-dimethylphenyl)-2-(thiazol-2-ylamino)thiazole-5-carboxamide] |
